Data from ChEMBL document CHEMBL1153143, “Structure-based design, synthesis and biological evaluation of new N-carboxyphenylpyrrole derivatives as HIV fusion inhibitors targeting gp41” (Bioorg Med Chem Lett, 2010).

Experiments:
[1] = tested on: Human immunodeficiency virus 1; assay: Antiviral activity against HIV1 3B in human MT2 cells assessed as inhibition of p24 antigen level after 4 days by ELISA; format: functional, organism-based; details: Human immunodeficiency virus 1, 3B, MT2, 96 h
[2] = tested on: MT2; assay: Cytotoxicity against human MT2 cells after 4 days by XTT assay; format: cell-based; details: mt2, 96 h
[3] = Selectivity index, ratio of CC50 for human MT2 cells to EC50 for HIV1 3B; format: toxicity, cell-based; details: read-out: Ratio CC50/IC50
[4] = Inhibition of HIV1 3B gp41 six-helix bundle formation after 30 mins by native-polyacrylamide gel electrophoresis; set-up: species or system Human immunodeficiency virus 1
[5] = tested on: Human immunodeficiency virus 1; assay: Antiviral activity against HIV1 3B in human MT2 cells assessed as reduction of virus-induced cytopathogenicity; format: functional, organism-based; details: Human immunodeficiency virus 1, 3B
[6] = tested on: Human immunodeficiency virus 1; assay: Antiviral activity against HIV1 3B in human MT2 cells assessed as inhibition of cell-cell fusion; format: functional, organism-based; details: Human immunodeficiency virus 1, 3B

| SMILES | IC50 [1] [µM] | CC50 [2] [µM] | selectivity ratio [3] | IC50 [4] [µM] | IC50 [5] [µM] | IC50 [6] [µM] |
| --- | --- | --- | --- | --- | --- | --- |
| Cc1ccc(C)n1-c1ccc(O)c(C(=O)O)c1 | 28.2 | 334 | 11.8 | 29.4 | 55.5 | 43.2 |
| Cc1ccc(C)n1-c1ccc(-c2ccc(CCC(=O)O)cc2)c(C(=O)O)c1 | 8.3 | 227 | 27.4 | 21.8 | 13.1 | 8.3 |
| Cc1ccc(C)n1-c1ccc(-c2ccccc2)c(C(=O)O)c1 | 17.8 | 290 | 16.3 | 29 | 37.9 | 59.2 |
| Cc1ccc(C)n1-c1ccc(-c2ccc(C(=O)O)cc2)c(C(=O)O)c1 | 25.6 | 355 | 13.8 | 20.5 | 33.9 | 26 |
| Cc1ccc(C)n1-c1ccc(-c2ccc(/C=C/C(=O)O)cc2)c(C(=O)O)c1 | 4.91 | 255 | – | 20.7 | 7.71 | 3.6 |
| Cc1ccc(-c2ccc(-n3c(C)ccc3C)cc2C(=O)O)cc1 | 18.2 | 280 | 15.4 | 21.3 | 79.5 | 51.6 |
